Experimental data reported in patent US20110098177A1, “METHODS AND COMPOSITIONS OF PLANT MICRONUTRIENTS” (NOVUS INTERNATIONAL INC., priority 2006, published 2011).

What was measured:
Format in all cases: in vivo
Details in all cases: in vivo
Aristotle bell pepper = system: Aristotle bell pepper
Procedure: (§1) The following experiments were performed in a green house during the fall of 2007 at GCREC, Balm, University of Florida. Fifteen products, at 3 different application rates were examined. The plot size was 2-gallon pots. Crop set-up, procedures and variables were as follows.
(§2) Transplants of ‘Florida-47’ tomato and ‘Aristotle’ bell pepper plants in the 4-true leaf stage (about 6 inches tall) were planted in 2-gal pots on Aug. 27, 2007. Pots were filled with a commercially available planting medium. This medium was selected based on the mineral composition of the products to be applied without providing significant nutritional inputs to the crops. Irrigation was provided with drip lines delivering between 0.50 and 0.33 gal/day/pot for tomato and bell pepper, respectively, and the crops were irrigated three times per day. No foliar pesticides were necessary.
(§3) There were four control treatments corresponding to each target micronutrient in which non-Fe, non-Mn, non-Zn or non-Cu pots received all other essential nutrients under non-limiting conditions.
(§4) Treatments were applied at three rates (high, medium and low) obtained from the estimated concentration of Zn, Fe, Cu, and Mn foliarly-applied in tomato and bell pepper in field situations (Table 1). Products were weighed and dissolved in 200 ml of deionized water with a non-ionic surfactant and applied to the newly-matured open leaves of each crop at 3 and 7 weeks after transplant (WAT). Treated pots were isolated during application to avoid cross-contamination of other treatments.
(§5) Medium nutrient concentration was determined 1 week before treatment. The mineral composition of the medium was 26.8 ppm NH4—N, 49 ppm NO3—N, 15.8 ppm P, 91.2 ppm K, 82.3 ppm Ca, 58.2 ppm Mg, 23.9 ppm Na, 125.6 ppm S, 1.33 ppm Fe, 0.39 ppm Mn, 0.35 ppm Zn, 0.05 pp, Cu, 0.04 ppm B, 0 ppm Mo, 0.73 ppm Al, and 12.1 ppm Si. The pH of the medium was 5.36 and the electric conductivity was 1.38 mS/cm. The foliar tissue analysis was performed at 6 WAT and the concentration of N, P, K, Mg, Ca, S, B, Zn, Mn, Fe, and Cu was determined by a commercial laboratory. Plant toxicity was determined at 4 WAT by using a 0-10 visual scale, where 0=no visible damage and 10=total plant death. Marketable fruit weight was collected 2 times in bell pepper and 4 times in tomato following USDA standards.
(§6) Data were analyzed using a general linear model, and means were separated using orthogonal contrasts at the 5% significance level.

Florida-47 tomato = system: Florida-47 tomato
Procedure: as §1, §2, §3, §4, §5, §6

Tygress tomato plants [1] = experiment: Foliar nutrient concentration 2 weeks after treatment, greenhouse tomato (Examples 4-6)
Procedure: (§7) The following experiments were performed in a green house during the fall of 2008 and spring of 2009 at GCREC, Balm, University of Florida. Crop set-up, procedures and variables were as follows.
(§8) Transplants of Tygress' tomato plants were planted in 2-gallon pots filled with commercial planting medium with nutrient concentration of Fe, Zn, Mn, Cu being negligible and insufficient for crop growth. Irrigation and non-micronutrient fertilizer were provided daily through microsprinklers at recommended rates for tomato production in Florida. No pesticides were used. Treatments were as described in Tables 4, 5 and 6 below.
(§9) Treatments were applied at 5 WAT (weeks after transplanting) using a water volume of 200 mL/plant. A non-ionic surfactant was added. Foliar tissue analysis was performed at 3 and 7 WAT on the non-applied newest leaves. The concentrations of N, P, K, Mg, Ca, B, Zn, Mn, Fe, and Cu in the foliar tissue were determined from foliar analysis by a commercial laboratory at 2 weeks before treatment and again at 2 weeks after treatment.
(§10) Deionized water was used for foliar applications, and other nutrients were applied as appropriate under non-limiting conditions. Marketable fruit were collected three times during the growing season, starting at 10 WAT (5 weeks after the initial treatment). Tomato fruit was graded as extra-large, large and medium. Non-marketable fruit were harvested and number and weight recorded but not sized.
(§11) Experimental design was a randomized complete block design with 6 replications. Data were analyzed using a general linear model, and means were separated using an LSD test at the 5% significance level.

Tygress tomato plants [2] = experiment: Yields of tomato fruits, greenhouse (Examples 4-6)
Procedure: as §7, §8, §9, §10, §11

Tygress tomato plants [3] = experiment: Foliar nutrient concentration at 6 WAT, open-field tomato (Examples 7-10)
In short: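 Open-field Florida trial, spring 2008: transplants at 4-true-leaf stage on drip-irrigated raised beds were foliar-sprayed at 3 and 5 WAT (BIOX-CM at 4 and 5 WAT) at 60 gal/acre with non-ionic surfactant. Most recent mature leaves were sampled at 6 WAT. Tomato fruit was USDA-graded and analysed for minerals.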

[4] = system: Patriot bell pepper plants; experiment: Foliar nutrient concentration at 6 WAT, open-field bell pepper (Examples 7-10)
Procedure: (§12) The following experiments were performed in open-field plots during the spring of 2008 at GCREC, Balm, University of Florida. Four products delivering Zn (BIOX-Z), Mn (BIOX-M), Cu (BIOX-Cu), and Fe (BIOX-Fe) were compared to other micronutrient supplement formulations in tomato and bell pepper plants.
(§13) The plot sizes for the tomato plants were 30-ft plots (15 plants per plot) and 15-ft plots were used for the bell pepper plants (30 plants per plot). Crop set-up, procedures and variables were as follows.
(§14) Transplants of ‘Tygress’ tomato plants and ‘Patriot’ bell pepper plants in the 4-true leaf stage (about 6 inches tall) were planted in raised beds in open-field plots. The cross-section of each raised bed was 28 inches wide at the top, 32 inches wide at the base, and 8 inches tall. Irrigation and non-micronutrient fertilizer were provided daily through two drip lines per bed (0.45 gal/100 ft bed/min) at recommended rates for tomato and bell pepper production in Florida. […] The height of the plants for each of the treatment groups was measured at 3 weeks after transplantation (WAT), just prior to treatment with the experimental foliar fertilizers.
(§15) All foliar fertilizers except BIOX-CM were applied to the various treatment groups at 3 weeks after transplantation (WAT) and again at 5 WAT. The BIOX-CM treatment was applied at 4 and 5 WAT. The working water volume was 60 gal/acre and a non-ionic surfactant (Ad-Spray 80) was added in the amount of 2 pints/100 gal water. All plots were sprayed with sprayers pressurized at 25 psi and the canopies of both crops were covered with the micronutrient solutions. Treated plots were isolated during foliar fertilizer application to avoid the cross-contamination of other treatments on adjoining plots.
(§16) Leaf samples were collected from the most recent mature leaves from each plant at 6 WAT (2 weeks after initial treatment). Foliar tissue analysis was performed by a commercial laboratory to determine the concentration of N, P, K, Mg, Ca, B, Zn, Mn, Fe, and Cu. Tomato marketable fruit weights were collected at 10 and 12 WAT, and the fruits were graded according to USDA standards. Pepper marketable fruit weights were determined beginning at 5 WAT over 5 weekly harvests. Fruit mineral analysis (N, P, K, Mg, Ca, B, Zn, Mn, Fe, and Cu) was performed on samples from the tomato harvest.
(§17) The experimental design was a randomized complete block design with 5 replications for each treatment. All comparison data were analyzed using a general linear model and the means of each treatment were separated with a Fisher's protected LSD test at the 5% significance level.

Tygress tomato plants [5] = experiment: Marketable yield, open-field tomato (Examples 7-10)
Procedure: as §12, §13, §14, §15, §16, §17

[6] = system: Patriot bell pepper plants; experiment: Marketable yield, open-field bell pepper (Examples 7-10)
Procedure: as §12, §13, §14, §15, §16, §17

Tygress tomato plants [7] = experiment: Nutrient concentration of tomato fruits at 10 WAT, open field (Examples 7-10)
Procedure: as §12, §13, §14, §15, §16, §17

O=S(=O)([O-])[O-].[Zn+2] [BIOX-INZ, zinc sulfate]
Pepper toxicity (Aristotle bell pepper): 0 | Tomato toxicity (Florida-47 tomato): 0 | B concentration in tomato leaves (Tygress tomato plants [1]): 24 ppm | Cu concentration in tomato leaves (Tygress tomato plants [1]): 5 ppm | Fe concentration in tomato leaves (Tygress tomato plants [1]): 97 ppm | Foliar Zn concentration (Tygress tomato plants [1]): 768 a ppm | K concentration in tomato leaves (Tygress tomato plants [1]): 3.5% | Mg concentration in tomato leaves (Tygress tomato plants [1]): 0.3% | Mn concentration in tomato leaves (Tygress tomato plants [1]): 55 ppm | N concentration in tomato leaves (Tygress tomato plants [1]): 3.6% | P concentration in tomato leaves (Tygress tomato plants [1]): 0.4% | Marketable yield (Tygress tomato plants [2]): 3.7 a lb/plant | Foliar B concentration of tomato plants (Tygress tomato plants [3]): 41 ppm | Foliar Cu concentration of tomato plants (Tygress tomato plants [3]): 358 ppm | Foliar Fe concentration of tomato plants (Tygress tomato plants [3]): 71 ppm | Foliar K concentration of tomato plants (Tygress tomato plants [3]): 5.7% | Foliar Mg concentration of tomato plants (Tygress tomato plants [3]): 0.58% | Foliar Mn concentration of tomato plants (Tygress tomato plants [3]): 231 ppm | Foliar N concentration of tomato plants (Tygress tomato plants [3]): 4.8% | Foliar P concentration of tomato plants (Tygress tomato plants [3]): 0.18% | Foliar Zn concentration of tomato plants (Tygress tomato plants [3]): 323 ab ppm | Foliar Zn concentration of tomato plants, statement (Tygress tomato plants [3]): highest foliar concentration of Zn | Foliar B concentration of bell pepper plants [4]: 57 ppm | Foliar Cu concentration of bell pepper plants [4]: 385 ppm | Foliar Fe concentration of bell pepper plants [4]: 116 ppm | Foliar K concentration of bell pepper plants [4]: 3.2% | Foliar Mg concentration of bell pepper plants [4]: 0.53% | Foliar Mn concentration of bell pepper plants [4]: 303 ppm | Foliar N concentration of bell pepper plants [4]: 3.9% | Foliar P concentration of bell pepper plants [4]: 0.22% | Foliar Zn concentration of bell pepper plants [4]: 64 b ppm | Marketable yield, Tomato (Tygress tomato plants [5]): 15.6 ton/acre | Marketable yield, Bell Pepper [6]: 6.9 ton/acre | B concentration of tomato fruits (Tygress tomato plants [7]): 21 ppm | Cu concentration of tomato fruits (Tygress tomato plants [7]): 21 ppm | Fe concentration of tomato fruits (Tygress tomato plants [7]): 85 ppm | K concentration of tomato fruits (Tygress tomato plants [7]): 7.5% | Mg concentration of tomato fruits (Tygress tomato plants [7]): 0.34% | Mn concentration of tomato fruits (Tygress tomato plants [7]): 38 ppm | N concentration of tomato fruits (Tygress tomato plants [7]): 4.2% | P concentration of tomato fruits (Tygress tomato plants [7]): 0.59% | Zn concentration of tomato fruits (Tygress tomato plants [7]): 496 ppm
